{"source": "patent US6340693B1", "about": "“Protective agent for nervous system structural cells” (Toray Industries, Inc., priority 1997, dated 2002)", "assay_type_in_all_cases": "cell-based", "key": {"[1]": {"system": "nerve cells derived from a rat fetus (cerebral cortex)", "assay": "Survival of cultured isolated nerve cells (cerebral cortex)", "details": "serum-free DF medium, 3 days culture, 1 and 10 μM beraprost sodium, student t-test vs control", "from_the_text": "(§1) Effect of improving survival rate of cultured isolated nerve cells:\n(§2) The protective effect of beraprost sodium on nerve cells was examined by using nerve cells derived from a rat fetus. The cerebral cortex and hippocampus were obtained from the brain of a rat fetus of 17 days age, and isolated nerve cells were obtained therefrom by trypsin and pipetting treatment. The thus-obtained cells were inoculated into a 48-well culture plate coated with polylysine at a cell concentration of 5×10^3 cells/cm^2; followed by culture in a DF medium containing no serum at 37° C. for 3 days. After completion of culture, the cells were fixed by formalin, and the number of cells having axons was measured under a microscope. Beraprost sodium was added in an amount of each of 1, 10 and 100 μM during culture.\n(§3) The results are shown in FIG. 1 (In the figure, * and ** represent student t-test results. *: p<0.05 vs control. **: p<0.01 vs control. This applies to the description below). The nerve cells gradually died and fell under the conditions in this example, beraprost sodium prevented falling of the nerve cells, and increased the number of survival cells depending upon the concentration."}, "[2]": {"system": "nerve cells derived from a rat fetus (hippocampus)", "assay": "Survival of cultured isolated nerve cells (hippocampus)", "details": "serum-free DF medium, 3 days culture, 10 μM beraprost sodium, student t-test vs control", "from_the_text": "as §1, §2, §3"}, "[3]": {"system": "Human glioma cells", "assay": "Human glioma cell disorder due to peroxide (TBH)", "procedure": "Human glioma cells were separated from a patient of glioma (person), and then subjected to subculture in a 10% FCS-D-MEM medium (a Dulbecco's MEM medium (Nissui) containing 10% fetal calf serum). The cells were dispersed into single cells by trypsin-EDTA treatment, and then a 10% FCS-D-MEM medium was added to recover the cells, followed by centrifugation at 1200 rpm for 5 minutes. After centrifugation, the cells were prepared to 1×10^6 cells/ml by a HEPES buffer (Hanks' solution (Nissui) containing 15 mM HEPES, pH 7.4), and beraprost sodium (0.1 to 30 μM) was added to the cell solution, followed by incubation at 37° C. for 30 minutes. Then, […] of TBH (tertiary butyl hydroperoxide, Funakoshi) as a peroxide was added to the cell solution, followed by further incubation at 37° C. for 30 minutes. After reaction was stopped under ice cooling, some of the cells are collected, and divided into living cells and dead cells by trypan blue staining, followed by counting to determine the survival rate of the cells. The residual cells were centrifuged at 2000 rpm for 5 minutes, and then the amount of thiobarbituric acid reaction substance (TBARS amount) was measured according to the known method (Ohkawa, H., Ohnishi, N. and Yagi, K. Anal. Biochem., 95, 351-358 (1979)) and considered as an index of peroxidation of cell membrane lipid. […]"}}}
{"substance": "beraprost sodium", "values": [{"measurement": "number of survival cells (cells having axons)", "setting": "[1]", "value": "increase was significant"}, {"measurement": "number of survival cells (cells having axons)", "setting": "[2]", "value": "increase was significant"}, {"measurement": "decrease in the survival rate of cells by TBH treatment (trypan blue staining)", "setting": "[3]; 0.1 μM or more of beraprost sodium, 30 min pre-incubation, then 800 μm TBH for 30 min at 37° C.", "value": "significantly (p<0.01) suppressed"}, {"measurement": "TBARS amount as an index of peroxidation of cell membrane lipid (increase by TBH treatment)", "setting": "[3]; beraprost sodium 0.1 to 30 μM, TBH-treated cells", "value": "did not affect such an increase"}]}
